Test results reported in ChEMBL document CHEMBL1131555 (Bioorg Med Chem Lett, 1998).

How the values were obtained:
[1] = target: T1, Glucocorticoid receptor (Homo sapiens, UniProt P04150)
T1 sequence (P04150 whole entry): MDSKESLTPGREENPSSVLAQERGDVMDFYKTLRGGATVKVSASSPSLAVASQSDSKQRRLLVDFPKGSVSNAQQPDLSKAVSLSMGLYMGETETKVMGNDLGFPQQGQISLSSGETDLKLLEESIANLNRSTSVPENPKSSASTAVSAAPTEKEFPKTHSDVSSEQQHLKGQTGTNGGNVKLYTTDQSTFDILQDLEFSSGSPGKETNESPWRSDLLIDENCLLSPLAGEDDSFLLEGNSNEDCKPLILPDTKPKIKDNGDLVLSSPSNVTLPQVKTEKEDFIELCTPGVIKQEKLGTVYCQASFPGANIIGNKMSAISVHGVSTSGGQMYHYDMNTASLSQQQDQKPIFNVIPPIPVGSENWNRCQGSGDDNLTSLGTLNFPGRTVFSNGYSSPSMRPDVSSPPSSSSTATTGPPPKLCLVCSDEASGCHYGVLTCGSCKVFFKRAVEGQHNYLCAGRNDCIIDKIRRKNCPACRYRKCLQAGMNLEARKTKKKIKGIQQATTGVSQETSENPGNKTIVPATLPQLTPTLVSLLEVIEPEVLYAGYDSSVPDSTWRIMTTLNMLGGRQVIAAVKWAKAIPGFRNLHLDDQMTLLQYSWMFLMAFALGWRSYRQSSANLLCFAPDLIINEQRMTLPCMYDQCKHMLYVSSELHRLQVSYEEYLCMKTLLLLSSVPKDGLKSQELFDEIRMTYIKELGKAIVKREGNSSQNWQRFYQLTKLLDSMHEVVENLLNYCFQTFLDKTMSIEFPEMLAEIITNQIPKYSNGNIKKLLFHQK
Description: Displacement of Dexamethasone from human glucocorticoid receptor

[2] = target: T2, Androgen receptor (Homo sapiens, UniProt P10275)
T2 sequence (P10275 whole entry): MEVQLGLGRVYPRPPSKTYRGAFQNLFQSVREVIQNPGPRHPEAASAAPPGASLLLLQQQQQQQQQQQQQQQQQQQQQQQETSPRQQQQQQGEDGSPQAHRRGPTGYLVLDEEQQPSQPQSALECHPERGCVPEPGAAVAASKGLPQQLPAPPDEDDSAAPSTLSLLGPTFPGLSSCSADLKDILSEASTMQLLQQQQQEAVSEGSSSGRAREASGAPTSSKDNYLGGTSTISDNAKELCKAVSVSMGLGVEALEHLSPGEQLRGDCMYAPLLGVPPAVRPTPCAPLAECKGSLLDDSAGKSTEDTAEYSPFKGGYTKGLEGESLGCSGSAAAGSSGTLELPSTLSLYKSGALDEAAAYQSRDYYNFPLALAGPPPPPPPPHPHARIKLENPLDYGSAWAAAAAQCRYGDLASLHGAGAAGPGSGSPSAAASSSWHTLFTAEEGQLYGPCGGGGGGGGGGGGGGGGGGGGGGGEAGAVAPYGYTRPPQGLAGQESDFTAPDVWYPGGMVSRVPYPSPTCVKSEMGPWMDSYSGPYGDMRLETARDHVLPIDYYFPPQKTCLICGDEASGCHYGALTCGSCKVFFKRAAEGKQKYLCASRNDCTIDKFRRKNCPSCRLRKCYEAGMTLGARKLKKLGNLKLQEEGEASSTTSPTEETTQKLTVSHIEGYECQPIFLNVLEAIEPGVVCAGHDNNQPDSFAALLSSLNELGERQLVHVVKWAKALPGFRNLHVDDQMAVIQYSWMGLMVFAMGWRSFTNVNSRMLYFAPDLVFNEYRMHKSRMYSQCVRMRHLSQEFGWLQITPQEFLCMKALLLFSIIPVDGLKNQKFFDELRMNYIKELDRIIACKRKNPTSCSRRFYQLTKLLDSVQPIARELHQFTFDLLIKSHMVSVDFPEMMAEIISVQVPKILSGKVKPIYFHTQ
Description: Displacement of DHT from human androgen receptor

Ki [1] [nM]	Ki [2] [nM]	SMILES
158	1480	CC1=CC(C)(C)Nc2ccc3c(c21)C(CCC(C)C)Oc1ccccc1-3 (stereo not given)
749	456	CC1=CC(C)(C)Nc2ccc3c(c21)C(C)Oc1ccc(F)cc1-3 (stereo not given)
394	886	CCCCC1Oc2ccc(Cl)cc2-c2ccc3c(c21)C(C)=CC(C)(C)N3 (stereo not given)
51	903	CCCCC1Oc2ccc(C)cc2-c2ccc3c(c21)C(C)=CC(C)(C)N3 (stereo not given)
533	1330	CCCCC1Oc2ccc(F)cc2-c2ccc3c(c21)C(C)=CC(C)(C)N3 (stereo not given)
889	> 1000	C=CCC1Oc2ccccc2-c2ccc3c(c21)C(C)=CC(C)(C)N3 (stereo not given)
260	697	CCCOC1Oc2ccc(Cl)cc2-c2ccc3c(c21)C(C)=CC(C)(C)N3 (stereo not given)
130	785	CCCCC1Oc2ccc(OC)cc2-c2ccc3c(c21)C(C)=CC(C)(C)N3 (stereo not given)
367	621	CC1=CC(C)(C)Nc2ccc3c(c21)C(C)Oc1ccc(Cl)cc1-3 (stereo not given)
813	2050	CCCCC1Oc2ccccc2-c2ccc3c(c21)C(C)=CC(C)(C)N3 (stereo not given)
